One data set concerns the target HDAC3/ NCOR2 (Homo sapiens, UniProt O15379). Kind of data set: HDAC isoform inhibition (BPS Bioscience).
The next data set has as its system SK-Hep-1. Description: MTS cell viability assay, 72 h. The conditions noted are these: Homo sapiens, SK-HEP1; Figure 1g; read-out: Anti-proliferation effects IC50 (μM) SK-Hep-1. It counts as cell-based. An excerpt: (§1) We then screened STR-V-53 and all the synthesized glycosylated HDACi for their effects on the viability of three cell lines: A549 (lung adenocarcinoma), Hep-G2 (HCC), and VERO (a normal kidney epithelial cell). We used SORA and STR-V-48, a previously disclosed nonglycosylated compound, as controls.[25] […] Additionally, compound STR-V-167, the peracetylated analog of STR-V-53, largely retained the Hep-G2 selectivity of STR-V-53 (Table S2). Subsequently, we evaluated the effects of STR-V-53 on cell proliferation using a panel of human HCC cell lines (Huh-7, SK-Hep-1, and Hep3B) as well as Kupffer cells (liver resident macrophages) by MTS assay. We observed that STR-V-53 is 7- to 16-fold more cytotoxic against these HCC cell lines relative to the Kupffer cells (Figure 1g). […] Based on their weak HDAC and cell proliferation inhibition activities, we de-emphasized further evaluation of the class III compounds.
(§2) 10-017-CV), supplemented with 10% fetal bovine serum (FBS) (Corning, 35-010-CV). Hep-G2 cells were cultured in phenol red-free Minimum Essential Medium (MEM) (Corning, 17-305-CV), supplemented with 10% fetal bovine serum (FBS). SK-Hep-1 in ATCC-formulated EMEM (ATCC® 30–2003™); Huh-7 in DMEM (containing 4 mM L-glutamine and 1 g/L glucose) with […]
(§3) Kupffer Cell Media (Sekisui XenoTech, LLC, Cat. #K8700). Cells were seeded into a 96-well plate (2000 counts/100uL) for 24 h prior to treatment and then treated with various drug concentrations for 72 h. All drugs were dissolved in media with DMSO concentration maintained at 1%. The effect of compounds on cell viability was measured using the MTS assay (CellTiter 96 Aqueous One Solution and CellTiter 96 Non-Radioactive Cell Proliferation Assays, Promega, Madison, WI) as described by the manufacturer. IC50s were determined using Prism GraphPad 8. […]

A further data set concerns Huh-7. Description: MTS cell viability assay, 72 h. The conditions noted are these: Homo sapiens, Figure 1g, read-out: Anti-proliferation effects IC50 (μM) Huh-7. It counts as cell-based.
Source text: as §1, §2, §3

The test system of data set [1] is Kupffer cells (liver resident macrophages). Description: MTS cell viability assay, 72 h. It counts as cell-based. The conditions noted are these: Macrophage; Figure 1g; read-out: Anti-proliferation effects IC50 (μM) Kupffer.
Source text: as §1, §2, §3

The test system of the next data set is Hep3B. Kind of data set: MTS cell viability assay, 72 h. It counts as cell-based. The note with it: Homo sapiens, Figure 1g, read-out: Anti-proliferation effects IC50 (μM) Hep3 B.
Source text: as §1, §2, §3

In another data set the target is HDAC10 (Homo sapiens, UniProt Q969S8). Kind of data set: HDAC isoform inhibition (BPS Bioscience).
HDAC10, sequence (Q969S8 whole entry, canonical isoform): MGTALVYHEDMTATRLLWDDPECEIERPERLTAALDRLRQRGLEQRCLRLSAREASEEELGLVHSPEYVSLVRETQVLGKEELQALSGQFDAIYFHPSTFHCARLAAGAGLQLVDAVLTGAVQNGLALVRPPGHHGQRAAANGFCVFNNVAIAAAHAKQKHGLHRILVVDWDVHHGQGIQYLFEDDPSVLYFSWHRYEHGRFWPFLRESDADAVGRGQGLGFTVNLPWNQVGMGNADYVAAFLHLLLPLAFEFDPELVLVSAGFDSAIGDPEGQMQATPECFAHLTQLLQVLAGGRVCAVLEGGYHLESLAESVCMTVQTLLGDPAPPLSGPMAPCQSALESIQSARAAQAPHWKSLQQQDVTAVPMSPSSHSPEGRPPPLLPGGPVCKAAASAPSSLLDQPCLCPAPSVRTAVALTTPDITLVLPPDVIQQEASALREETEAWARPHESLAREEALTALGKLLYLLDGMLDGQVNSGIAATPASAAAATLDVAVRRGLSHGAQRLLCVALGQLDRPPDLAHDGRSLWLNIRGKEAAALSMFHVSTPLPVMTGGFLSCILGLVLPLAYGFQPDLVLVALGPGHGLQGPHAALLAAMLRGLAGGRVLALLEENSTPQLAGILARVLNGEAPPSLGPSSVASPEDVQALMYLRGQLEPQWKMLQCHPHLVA
The subject of data set [2] is NCI-60 panel cancer cells. Kind of data set: NCI-60 panel one-dose screen. It counts as cell-based. The conditions noted are these: 10 μM. How it is done: To further investigate the cancer cell-type selectivity of these glycosylated HDACi, we screened STR-V-53 (10 μM) in the NCI 60 panel. […] The antiproliferative effect of STR-V-53 against Hep-G2 cells and its lack of growth inhibition in the NCI-60 panel strongly support the HCC cell-selective attribute of STR-V-53 and possibly other lead glycosylated HDACi identified herein.

A further data set concerns cytochrome P450. It counts as in vitro ADME. The conditions noted are these: maximum tested concentration of 100 μM.
In data set [3] the test system is Hep-G2-Red-FLuc intrahepatic tumors. Description: Orthotopic xenograft model of Hep-G2-Red-FLuc human HCC. It counts as in vivo, mice. An excerpt: Next, we evaluated the effects of STR-V-53 on tumor growth in an orthotopic murine model of Hep-G2-Red-FLuc Bioware Brite Cell Line (PerkinElmer) in mice. Mice (6–8 weeks old) were orthotopically implanted through a direct intrahepatic artery injection with Hep-G2-Red-FLuc cells according to published protocols.[38] We used the Red-Fluc expression to confirm tumor implantation by bioluminescent imaging using IVIS. Treatment began after imaging confirmed the establishment of intrahepatic tumors (approximately 7 days). Mice were grouped into cohorts with similar average relative chemiluminescence. Tumor-bearing mice in the treatment groups were injected daily with 200 μL of solution of STR-V-53, SORA, or a combination of STR-V-53 and SORA for 21 days via the i.p. route. No treatment group received vehicle only. After treatment, mice were imaged again, sacrificed, and liver samples were harvested to determine the effects of treatment on tumor size by measurement with calipers. […] Moreover, the combination therapy of SORA (10 mg/kg) and STR-V-53 (25 mg/kg) is more efficacious than either drug as a standalone agent.
Signaling Technology), respectively, for immunostaining. […]
(Armenian Hamster monoclonal antibody, clone 2H8, Millipore). Positive cells were counted from five random fields for each HCC tissue section. […]
monitored by high-frequency ultrasonography. […]

HDAC3/ NCOR2, sequence (O15379 whole entry, canonical isoform): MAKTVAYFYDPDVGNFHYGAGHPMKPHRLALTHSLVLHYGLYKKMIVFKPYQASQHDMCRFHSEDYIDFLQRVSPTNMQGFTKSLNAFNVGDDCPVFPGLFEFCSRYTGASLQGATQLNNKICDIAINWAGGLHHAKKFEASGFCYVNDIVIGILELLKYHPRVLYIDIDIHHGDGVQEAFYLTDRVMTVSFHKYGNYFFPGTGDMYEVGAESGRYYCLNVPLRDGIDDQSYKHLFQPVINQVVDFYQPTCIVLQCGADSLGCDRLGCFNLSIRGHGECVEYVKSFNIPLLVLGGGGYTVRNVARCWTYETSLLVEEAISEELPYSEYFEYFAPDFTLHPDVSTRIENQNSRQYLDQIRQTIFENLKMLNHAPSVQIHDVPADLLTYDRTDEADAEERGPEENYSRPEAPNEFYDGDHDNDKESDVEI
HDAC3/ NCOR2, sequence (Q9Y618 395-489 partner limits assumed): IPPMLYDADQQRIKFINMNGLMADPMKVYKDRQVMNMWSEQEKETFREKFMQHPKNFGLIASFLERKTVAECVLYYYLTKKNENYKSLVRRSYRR

For the molecule `O=C(CCCCCCn1cc(-c2ccc(O[C@H]3O[C@H](CO)[C@@H](O)[C@H](O)[C@H]3O)cc2)nn1)NO` [STR-V-53], the IC50 was 0.021 µM on HDAC3/ NCOR2; 13.9 µM in the data set with SK-Hep-1; 6.25 µM in the data set on Huh-7; more than 100 µM in data set [1]; 11.1 µM with Hep3B; 0.054 µM on HDAC10. In data set [2], the “Mean cell growth in NCI-60 panel” value is 99.6%. In the data set on cytochrome P450, the “Cytochrome P450 inhibition” value was “no inhibition”. The “Tumor growth inhibition (TGI)” value in data set [3] (25 mg/kg daily i.p. for 21 days) is recorded as 60%; in [3] (50 mg/kg daily i.p. for 21 days), 68%.

These data come from paper PMC11475281, “A Novel Liver Cancer-Selective Histone Deacetylase Inhibitor Is Effective against Hepatocellular Carcinoma and Induces Durable Responses with Immunotherapy” (ACS Pharmacology & Translational Science, 2024).
